Measurements published in US4725683A, “Fluorophenoxyphenoxypropionates and derivatives thereof” (The Dow Chemical Company, priority 1985, dated 1988).

Experiments:
Format in all cases: in vivo
Wild Oats = assay: Preemergent activity; conditions: Avena fatua, pre-emergence, read-out: Preemergence Control; for pest or weed control at 70 g/ha: 0.07 kgs/hectare; for pest or weed control at 280 g/ha: 0.28 kgs/hectare
Procedure, shortened: (§1)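 Test compound was dissolved in acetone at twice the final concentration, then mixed with an equal volume of water containing 0.1% w/w Tween-20. The resulting emulsion was sprayed uniformly at a predetermined rate onto sandy loam seed beds sown with each species. Controls received acetone–Tween-20–water only.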

Crabgrass [1] = assay: Preemergent activity
Procedure, shortened: as §1

Barnyard Grass [2] = assay: Preemergent activity; conditions: Echinochloa crus-galli, pre-emergence, read-out: Preemergence Control; for pest or weed control at 70 g/ha: 0.07 kgs/hectare; for pest or weed control at 280 g/ha: 0.28 kgs/hectare
Procedure, shortened: as §1

Crabgrass [3] = assay: Postemergent activity
Procedure, shortened: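 Potted crabgrass plants grown to roughly 10 cms tall were sprayed to run-off with aqueous compositions of the test compound, which was first dissolved in acetone at twice the final concentration and then diluted with an equal volume of water containing 0.1 percent by weight TWEEN® 200 surfactant. Pots sprayed without toxicant served as controls. After two weeks under growth-favorable conditions, plant control was scored from 0 (no effect) to 100 (complete kill).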

Barnyard Grass [4] = assay: Postemergent activity
Procedure, shortened: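 Potted plants about 10 cms tall were sprayed to run-off with conventional equipment using aqueous compositions. These were made by dissolving the active ingredient in acetone at twice the final concentration and diluting with an equal volume of water containing 0.1 percent TWEEN® 200 surfactant. Toxicant-free sprays served as controls. After two weeks of growth, injury was scored from 0 (no effect) to 100 (complete kill).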

velvet leaf [5] = assay: Postemergent activity; conditions: 125 ppm
Description: (§2) Representative compositions of the present invention were evaluated for the postemergence control of species of plants listed in Table A. In these evaluations, pots of the plant species listed in Table A, grown to a height of about 10 cms, were used. Aqueous spray compositions, containing various amounts of 2-[4-(2-fluoro-4-trifluoromethylphenoxy)-phenoxy]propionic acid methy ester, i.e., 125 ppm, 62.5 ppm, 31.25 ppm, 15.6 ppm, 7.8 ppm and 3.9 ppm, respectively, were applied to separate pots. The spray compositions were made by mixing the active ingredient in acetone to 1/2 the final volume, i.e., twice the final concentration. An equal amount of water was added to the active ingredient/acetone mixture wherein the water contained 0.1 percent by weight of TWEEN® 200 surfactant. The application to the plants was made to the point of run-off and was carried out with conventional spraying equipment. Other pots were sprayed with similar compositions containing no toxicant to serve as controls. Thereafter, the pots were maintained under conditions conducive for plant growth. Two weeks after treatment, the pots were examined for plant growth and evaluated on a scale of 0 to 100 where 0 represents no effect and 100 represents complete kill. The results of the examination of the treated pots are set forth below in Table A.

cotton [6] = assay: Postemergent activity; conditions: 125 ppm
Description: as §2

cocklebur = assay: Postemergent activity; conditions: 125 ppm
Description: as §2

jimson weed [7] = assay: Postemergent activity; conditions: 125 ppm
Description: as §2

morning glory = assay: Postemergent activity; conditions: 125 ppm
Description: as §2

sugar beets = assay: Postemergent activity; conditions: 125 ppm
Description: as §2

Johnson Grass = assay: Postemergent activity
Description: as §2

soybeans = assay: Postemergent activity; conditions: 125 ppm
Description: as §2

rape = assay: Postemergent activity; conditions: 125 ppm
Description: as §2

pigweed = assay: Postemergent activity; conditions: 125 ppm
Description: as §2

velvet leaf [8] = assay: Preemergent activity; conditions: 0.28 kgs/hectare, seeds
Description: (§3) In a representative operation, 2-[4-(2-fluoro-4-trifluoromethylphenoxy)phenoxy]propionic acid methyl ester, to be utilized in a series of tests, is dissolved in acetone to one half of the final volume (twice the final concentration) to be used and the acetone solution in each case is admixed with an equal volume of water containing 0.1 percent by weight of Tween-20 surface active material (Tween-20 is a trademark of Atlas Chemical Company). The composition, generally in the nature of an emulsion, was employed to treat separate respective seed beds of sandy loam soil of good nutrient content wherein each seed bed contained separate groups of good viable seeds, each group being of one of a known plant species. The various beds were positioned side by side and exposed to substantially identical conditions of temperature and light. Each bed was maintained so as to prevent any interaction with the test compound in different seed beds. Each seed bed was treated with the composition as a spray employing conventional spraying equipment to deposit a predetermined amount of the compound uniformly throughout the surface of the bed. Another seed bed was treated only with the acetone-Tween-20 water mixture with no chemical added to serve as a control. After treatment, the seed beds were maintained for two weeks under greenhouse conditions conducive for good plant growth and watered as necessary. Control refers to the reduction in growth of the test species in the presence of the test chemical relative to the observed growth of the same species in the absence of the test chemical.
(§4) Substantially the same procedures described in Example C were repeated using as the active ingredients

cotton [9] = assay: Preemergent activity; conditions: 0.28 kgs/hectare, seeds
Description: as §3, §4

jimson weed [10] = assay: Preemergent activity; conditions: 0.28 kgs/hectare, seeds
Description: as §3, §4

yellow nutsedge = assay: Preemergent activity; conditions: 0.28 kgs/hectare, seeds
Description: as §3, §4

COC(=O)C(C)Oc1ccc(Oc2ccc(C(F)(F)F)cc2F)cc1 (stereo not shown) [2-[4-(2-fluoro-4-trifluoromethylphenoxy)phenoxy]propionic acid methyl ester] gave a pest or weed control at 18 g/ha (Wild Oats; 0.018 kgs/hectare) of 0%, a pest or weed control at 35 g/ha (Wild Oats; 0.035 kgs/hectare) of 20% and a pest or weed control at 70 g/ha (Wild Oats) of 90%. The pest or weed control at 114 g/ha (Wild Oats; 0.114 kgs/hectare) was 100%, the pest or weed control at 280 g/ha (Wild Oats) was 100% and the “Preemergence Control” value (Crabgrass [1]; 0.018 kgs/hectare) was 40%. For the same molecule, the “Preemergence Control” value (Crabgrass [1]; 0.035 kgs/hectare) was 100%, the “Preemergence Control” value (Crabgrass [1]; 0.07 kgs/hectare) was 100% and the “Preemergence Control” value (Crabgrass [1]; 0.114 kgs/hectare) was 100%. For the same molecule, the “Preemergence Control” value (Crabgrass [1]; 0.28 kgs/hectare) was 100%, the pest or weed control at 18 g/ha (Barnyard Grass [2]; 0.018 kgs/hectare) was 20% and the pest or weed control at 35 g/ha (Barnyard Grass [2]; 0.035 kgs/hectare) was 70%. It also gave a pest or weed control at 70 g/ha (Barnyard Grass [2]) of 80%, a pest or weed control at 114 g/ha (Barnyard Grass [2]; 0.114 kgs/hectare) of 100% and a pest or weed control at 280 g/ha (Barnyard Grass [2]) of 100%. For the same molecule, the “% Control” value (Crabgrass [3]; 3.9 ppm) was 90%, the “% Control” value (Crabgrass [3]; 7.8 ppm) was 100% and the “% Control” value (Crabgrass [3]; 15.6 ppm) was 100%. For the same molecule, the “% Control” value (Crabgrass [3]; 31.25 ppm) was 100%, the “% Control” value (Crabgrass [3]; 62.5 ppm) was 100% and the “% Control” value (Crabgrass [3]; 125 ppm) was 100%. The “% Control” value (Barnyard Grass [4]; 3.9 ppm) was 50%, the “% Control” value (Barnyard Grass [4]; 7.8 ppm) was 100% and the “% Control” value (Barnyard Grass [4]; 15.6 ppm) was 100%. The “% Control” value (Barnyard Grass [4]; 31.25 ppm) was 100%, the “% Control” value (Barnyard Grass [4]; 62.5 ppm) was 100% and the “% Control” value (Barnyard Grass [4]; 125 ppm) was 100%. The phytotoxic effect (velvet leaf [5]) was “inactive”, the phytotoxic effect (cotton [6]) was “inactive” and the phytotoxic effect (cocklebur) was “inactive”. For the same molecule, the phytotoxic effect (jimson weed [7]) was “inactive”, the phytotoxic effect (morning glory) was “inactive” and the phytotoxic effect (sugar beets) was “inactive”. For the same molecule, the “% Control” value (Johnson Grass; 3.9 ppm) was 60%, the “% Control” value (Johnson Grass; 7.8 ppm) was 100% and the “% Control” value (Johnson Grass; 15.6 ppm) was 100%. The “% Control” value (Johnson Grass; 31.25 ppm) was 100%, the “% Control” value (Johnson Grass; 62.5 ppm) was 100% and the “% Control” value (Johnson Grass; 125 ppm) was 100%. For the same molecule, the phytotoxic effect (soybeans) was “inactive”, the phytotoxic effect (rape) was “inactive” and the phytotoxic effect (pigweed) was “inactive”. For the same molecule, the phytotoxic effect (velvet leaf [8]) was “inactive”, the phytotoxic effect (cotton [9]) was “inactive” and the phytotoxic effect (jimson weed [10]) was “inactive”. For the same molecule, the phytotoxic effect (yellow nutsedge) was “inactive”.

COC(=O)C(C)Oc1ccc(Oc2ccc(Cl)cc2F)cc1 (racemic) [Example 4-Chloro-, 2-[4-(4-chloro-2-fluorophenoxy)phenoxy]propionic acid methyl ester] was tested, and the pest or weed control at 70 g/ha (Wild Oats) was 0%, the pest or weed control at 140 g/ha (Wild Oats; 0.14 kgs/hectare) was 0% and the pest or weed control at 280 g/ha (Wild Oats) was 20%. The pest or weed control at 560 g/ha (Wild Oats; 0.56 kgs/hectare) was 50%, the pest or weed control at 1120 g/ha (Wild Oats; 1.12 kgs/hectare) was 70% and the “Preemergence Control” value (Crabgrass [1]; 0.07 kgs/hectare) was 60%. For the same molecule, the “Preemergence Control” value (Crabgrass [1]; 0.14 kgs/hectare) was 100%, the “Preemergence Control” value (Crabgrass [1]; 0.28 kgs/hectare) was 100% and the “Preemergence Control” value (Crabgrass [1]; 0.56 kgs/hectare) was 100%. The “Preemergence Control” value (Crabgrass [1]; 1.12 kgs/hectare) was 100%, the pest or weed control at 70 g/ha (Barnyard Grass [2]) was 40% and the pest or weed control at 140 g/ha (Barnyard Grass [2]; 0.14 kgs/hectare) was 98%. It also gave a pest or weed control at 280 g/ha (Barnyard Grass [2]) of 98%, a pest or weed control at 560 g/ha (Barnyard Grass [2]; 0.56 kgs/hectare) of 100% and a pest or weed control at 1120 g/ha (Barnyard Grass [2]; 1.12 kgs/hectare) of 100%.
